Reference: patent US20110237679A1, “NOVEL ANTIVIRAL COMPOUNDS, COMPOSITIONS, AND METHODS OF USE” (CYTOKINE PHARMASCIENCES, INC., priority 2008, published 2011)

Assay: in vitro activity comparison (FIG. 1)
Assay type: cell-based
Settings: relative to ITI-367

SMILES: COc1ccccc1C(=Nc1cccc(C(F)(F)F)c1)NO [CPSI-00220, N-hydroxy-2-methoxy-N′-(3-trifluoromethyl-phenyl)-benzamidine]
- effectiveness in vitro compared with ITI-367: equally (and possibly more) as effective as ITI-367
